# Data: patent publication US20090029955A1, “Pyridothienopyrimidine Derivatives” (priority 2004, published 2009)
# Tested on: PDE4
# Assay: PDE4 Assay Procedure ([3H]-cAMP SPA)
# Assay type: biochemical
# Details: 15 nM [3H]-cAMP, 1 hour at room temperature, SPA beads; compounds tested from 10 μM to 10 pM
# Experimental: Compounds to be tested were resuspended in DMSO at a stock concentration of 1 mM. […] These dilutions were done in 96-well plates. In some cases, plates containing diluted compounds were frozen before being assayed. In these cases, the plates were thawed at room temperature and stirred for 15 minutes.
# Ten microliters of the diluted compounds were poured into a “low binding” assay plate. […] The reaction was initiated by adding ten microliters of a solution containing PDE4. The plate was then incubated under stirring for 1 hour at room temperature. After incubation the reaction was stopped with 50 microlitres of SPA beads, and the reaction was allowed to incubate for another 20 minutes at room temperature before measuring radioactivity using standard instrumentation.
# The reaction mixture was prepared by adding 90 ml of H2O to 10 ml of 10× assay buffer (500 mM Tris pH 7.5, 83 mM MgCl2, 17 mM EGTA), and 40 microlitres 1 μCi/μL [3H]-cAMP. SPA beads solution was prepared by adding 500 mg to 28 ml H2O for a final concentration of 20 mg/ml beads and 18 mM zinc sulphate.
row,Structure (SMILES),IC50 [nM]
1,"CC1(C)CCc2c(N3CCCC3)nc3sc4c(NCc5ccncc5)ncnc4c3c2C1 [Example 24, 2,2-Dimethyl-N-(pyridin-4-ylmethyl)-5-pyrrolidin-1-yl-1,2,3,4-tetrahydropyrimido[4′,5′:4,5]thieno[2,3-c]isoquinolin-8-amine]",14
2,"CN(C)c1nc2sc3c(NCc4cccnc4)ncnc3c2c2c1CC(C)(C)C2 [Example 79, N^4,N^4,2,2-Tetramethyl-N-(pyridin-3-ylmethyl)-2,3-dihydro-1H-cyclopenta[4′,5′]pyrido[3′,2′:4,5]thieno[3,2-d]pyrimidin-4,7-diamine]",4.6
3,"CC1(C)CCc2c(-c3ccco3)nc3sc4c(NCCN5CCOCC5)ncnc4c3c2C1 [Example 62, 5-(2-Furyl)-2,2-dimethyl-N-(2-morpholin-4-ylethyl)-1,2,3,4-tetrahydropyrimido[4′,5′:4,5]thieno[2,3-c]isoquinolin-8-amine]",3.8
4,"CC(C)Cc1nc2sc3c(NCCCN4CCCC4=O)ncnc3c2c2c1CCC(C)(C)C2 [Example 60, 1-{3-[(5-Isobutyl-2,2-dimethyl-1,2,3,4-tetrahydropyrimido[4′,5′:4,5]thieno[2,3-c]isoquinolin-8-yl)amino]propyl}pyrrolidin-2-one]",4.8
5,"CCN(C)c1nc2sc3c(NCC(=O)NCC4CCCO4)ncnc3c2c2c1CCC(C)(C)C2 (stereo not drawn) [Example 54, N^2-{5-[Ethyl(methyl)amino]-2,2-dimethyl-1,2,3,4-tetrahydropyrimido[4′,5′:4,5]thieno[2,3-c]isoquinolin-8-yl}-N^1-(tetrahydrofuran-2-ylmethyl)glycinamide]",10
6,"CC1(C)CCc2c(N3CCCC3)nc3sc4c(NCCN5CCOCC5)ncnc4c3c2C1 [Example 23, 2,2-Dimethyl-N-(2-morpholin-4-ylethyl)-5-pyrrolidin-1-yl-1,2,3,4-tetrahydropyrimido[4′,5′:4,5]thieno[2,3-c]isoquinolin-8-amine]",8.1
7,CC1(C)CCc2c(N3CCCC3)nc3sc4c(NCc5cccnc5)ncnc4c3c2C1 [Example 25],1.5
8,"CC1(C)CCc2c(N3CCSCC3)nc3sc4c(NCc5ccccn5)ncnc4c3c2C1 [Example 16, 2,2-Dimethyl-N-(pyridin-2-ylmethyl)-5-thiomorpholin-4-yl-1,2,3,4-tetrahydropyrimido[4′,5′:4,5]thieno[2,3-c]isoquinolin-8-amine]",3
9,"CCOC(=O)N1CCN(CCNc2ncnc3c2sc2nc(N(C)C)c4c(c23)CC(C)(C)CC4)CC1 [Example 43, Ethyl 4-(2-{[5-(dimethylamino)-2,2-dimethyl-1,2,3,4-tetrahydropyrimido[4′,5′:4,5]thieno[2,3-c]isoquinolin-8-yl]amino}ethyl)piperazine-1-carboxylate]",7.9
